Measurements reported in ChEMBL document CHEMBL1135674, “A new series of estrogen receptor modulators that display selectivity for estrogen receptor beta” (J Med Chem, 2002).
The source made the active and inactive calls. The rule behind the calls is not given here.

How the values were obtained:
Estrogen receptor [1] = biological target: T1, Estrogen receptor (Homo sapiens, UniProt P03372)
T1 sequence (P03372 whole entry): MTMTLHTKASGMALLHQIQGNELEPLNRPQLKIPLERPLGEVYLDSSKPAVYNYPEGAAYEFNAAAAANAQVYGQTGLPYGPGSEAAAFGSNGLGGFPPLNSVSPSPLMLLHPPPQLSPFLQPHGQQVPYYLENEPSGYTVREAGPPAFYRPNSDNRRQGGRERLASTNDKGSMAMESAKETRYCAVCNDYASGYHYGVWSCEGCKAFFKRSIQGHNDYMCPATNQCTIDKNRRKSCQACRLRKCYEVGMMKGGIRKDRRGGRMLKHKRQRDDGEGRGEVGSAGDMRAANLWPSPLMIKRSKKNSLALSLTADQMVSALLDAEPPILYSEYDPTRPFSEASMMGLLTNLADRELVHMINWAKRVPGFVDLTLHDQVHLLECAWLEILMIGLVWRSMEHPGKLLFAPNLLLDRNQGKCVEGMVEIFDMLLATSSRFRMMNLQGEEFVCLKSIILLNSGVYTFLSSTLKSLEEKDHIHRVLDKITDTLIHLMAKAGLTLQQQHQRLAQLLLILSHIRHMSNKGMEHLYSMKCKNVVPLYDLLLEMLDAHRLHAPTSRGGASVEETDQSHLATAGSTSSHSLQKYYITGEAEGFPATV

Estrogen receptor beta [2] = biological target: T2, Estrogen receptor beta (Homo sapiens, UniProt Q92731)
T2 sequence (Q92731 whole entry): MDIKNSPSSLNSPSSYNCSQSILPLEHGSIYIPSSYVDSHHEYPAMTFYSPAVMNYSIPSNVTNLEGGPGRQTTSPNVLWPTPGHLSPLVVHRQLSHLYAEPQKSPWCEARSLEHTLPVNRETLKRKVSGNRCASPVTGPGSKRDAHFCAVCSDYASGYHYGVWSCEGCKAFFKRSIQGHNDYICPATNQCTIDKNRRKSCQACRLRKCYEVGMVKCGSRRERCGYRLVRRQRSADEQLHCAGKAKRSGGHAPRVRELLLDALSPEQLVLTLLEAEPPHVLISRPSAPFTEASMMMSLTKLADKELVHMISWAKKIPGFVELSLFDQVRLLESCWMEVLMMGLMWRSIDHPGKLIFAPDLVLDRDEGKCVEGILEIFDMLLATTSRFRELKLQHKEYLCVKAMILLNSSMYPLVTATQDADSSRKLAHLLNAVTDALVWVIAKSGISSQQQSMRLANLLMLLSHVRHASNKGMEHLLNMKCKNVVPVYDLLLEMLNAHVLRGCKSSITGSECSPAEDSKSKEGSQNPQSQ

Estrogen receptor [3] = biological target: T1, Estrogen receptor; remark: listed apart in the source
Estrogen receptor beta [4] = biological target: T2, Estrogen receptor beta; remark: listed apart in the source
Estrogen receptor [5] = biological target: T1, Estrogen receptor; remark: listed apart in the source
Estrogen receptor beta [6] = biological target: T2, Estrogen receptor beta; conditions: T47D
Estrogen receptor beta [7] = biological target: T2, Estrogen receptor beta; conditions: T47D, 10e-4 M
Estrogen receptor beta [8] = biological target: T2, Estrogen receptor beta; conditions: T47D; remark: listed apart in the source

Row | SMILES | Ki (Estrogen receptor [1]) [nM] | Ki (Estrogen receptor beta [2]) [nM] | further results
1 | CN1CCN(c2nc(NCCCc3ccccc3)nc(NC3CCc4ccc(O)cc4C3)n2)CC1 (stereo not given) | > 10000 | > 10000 | –
2 | CN(CCCc1ccc(F)cc1)c1nc(NCCc2ccc(O)cc2)nc(N2CCNCC2)n1 | 380 | 15 | EC50 (Estrogen receptor [3]): 200 nM; IC50 (Estrogen receptor beta [4]): 15 nM; IC50 (Estrogen receptor [5]): 240 nM; IA (Estrogen receptor beta [6]): inactive
3 | Oc1ccc(CCNc2nc(NCCCc3ccccc3)nc(N3CCNCC3)n2)cc1 | 1380 | 200 | –
4 | CN(CCCC1CCCCC1)c1nc(NCCc2ccc(O)cc2)nc(N2CCNCC2)n1 | 1420 | 820 | –
5 | CN(CCCc1ccc(C(F)(F)F)cc1)c1nc(NCCc2ccc(O)cc2)nc(N2CCNCC2)n1 | 480 | 75 | –
6 | Oc1ccc(CCNc2nc(NCCCc3ccc(Cl)cc3)nc(N3CCNCC3)n2)cc1 | 200 | 55 | –
7 | CN(C[C@@H]1C[C@@H]1c1ccccc1)c1nc(NCCc2ccc(O)cc2)nc(N2CCNCC2)n1 (relative stereo) | – | – | IA (Estrogen receptor beta [6]): inactive
8 | CN(CCCc1ccc(Cl)cc1)c1nc(NCCc2ccc(O)cc2)nc(N2CCN(C(=O)Nc3ccc(Cl)cc3)CC2)n1 | 855 | 425 | –
9 | CN1CCN(c2nc(NCCCc3ccccc3)nc(NCCc3ccc(O)cc3)n2)CC1 | 3240 | 490 | –
10 | CN1CCN(c2nc(NCCc3ccc(O)cc3)nc(N(C)CCCc3ccc(Cl)cc3)n2)CC1 | 145 | 15 | –
11 | CN(CCCc1ccc(Cl)cc1)c1nc(NCCc2ccc(O)cc2)nc(N2CCN(Cc3ccncc3)CC2)n1 | 810 | 115 | –
12 | CN1CCN(c2nc(NCCCc3ccccc3)nc(N3CCc4cc(O)ccc4C3)n2)CC1 | > 10000 | > 10000 | –
13 | CN1CCN(c2nc(NCCCc3ccccc3)nc(N3CCCC(c4ccc(O)cc4)C3)n2)CC1 (stereo not given) | > 10000 | > 10000 | –
14 | CN(CCCc1ccc(Cl)cc1)c1nc(NCCc2ccc(O)cc2)nc(N2CCN(C(=O)CCc3ccccc3)CC2)n1 | 1050 | 110 | –
15 | CN(CCCc1ccc(F)c(F)c1)c1nc(NCCc2ccc(O)cc2)nc(N2CCNCC2)n1 | 200 | 20 | –
16 | Cc1ccc(CCCN(C)c2nc(NCCc3ccc(O)cc3)nc(N3CCNCC3)n2)cc1 | 1140 | 100 | –
17 | CC(C)S(=O)(=O)N1CCN(c2nc(NCCc3ccc(O)cc3)nc(N(C)CCCc3ccc(Cl)cc3)n2)CC1 | > 10000 | 600 | –
18 | CN(CCCc1ccc(Cl)cc1)c1nc(NCCc2ccc(O)cc2)nc(N2CCN(C3CCCC3)CC2)n1 | 180 | 40 | –
19 | CCN(CCCc1ccc(Cl)cc1)c1nc(NCCc2ccc(O)cc2)nc(N2CCNCC2)n1 | 830 | 100 | –

Row | SMILES | Ki (Estrogen receptor [1]) [nM] | Ki (Estrogen receptor beta [2]) [nM] | further results
20 | CN(CCCc1ccc(Cl)cc1)c1nc(NCCc2ccc(O)cc2)nc(N2CCN(C(=O)N3CCOCC3)CC2)n1 | 2360 | 400 | –
21 | CN(CCCc1ccc(Cl)cc1)c1nc(NCCc2ccc(O)cc2)nc(N2CCN(Cc3ccccn3)CC2)n1 | – | 50 | –
22 | CN(CCCc1ccc(Cl)cc1)c1nc(NCCc2ccc(O)cc2)nc(N2CCN(C(=O)COc3ccccc3)CC2)n1 | 570 | 100 | –
23 | C[C@@H]1CN(c2nc(NCCc3ccc(O)cc3)nc(N(C)CCCc3ccc(Cl)cc3)n2)C[C@H](C)N1 | 60 | 15 | –
24 | CN(CCCc1ccccc1Cl)c1nc(NCCc2ccc(O)cc2)nc(N2CCNCC2)n1 | 680 | 40 | –
25 | CN(CCCc1ccc(Cl)cc1)c1nc(NCCc2ccc(O)cc2)nc(N2CCN(S(=O)(=O)/C=C/c3ccccc3)CC2)n1 | 1300 | 225 | –
26 | CCC(=O)CCN1CCN(c2nc(NCCc3ccc(O)cc3)nc(N(C)CCCc3ccc(Cl)cc3)n2)CC1 | 250 | 40 | –
27 | CN(CCCc1ccc(Cl)cc1)c1nc(NCCc2ccc(O)cc2)nc(N2CCN(CC(=O)c3ccccc3)CC2)n1 | 2040 | 200 | –
28 | CN(CCCc1ccc(Cl)cc1)c1nc(NCCc2ccc(O)cc2)nc(N2C[C@@H]3C[C@H]2CN3)n1 | 2280 | 105 | –
29 | Oc1ccc(CCNc2nc(SCCCc3ccc(Cl)cc3)nc(N3CCNCC3)n2)cc1 | – | – | IA (Estrogen receptor beta [6]): inactive
30 | CN(CCCc1ccc(C#N)cc1)c1nc(NCCc2ccc(O)cc2)nc(N2CCNCC2)n1 | 570 | 90 | –
31 | CN1CCN(c2nc(NCCc3ccc(O)cc3)nc(OCCCc3ccccc3)n2)CC1 | 2400 | 1000 | –
32 | CN(CCCc1ccc(Cl)cc1)c1nc(NCCc2ccc(O)cc2)nc(N2CCN(Cc3cccnc3)CC2)n1 | – | 35 | –
33 | CN(CCCc1ccc(Cl)cc1Cl)c1nc(NCCc2ccc(O)cc2)nc(N2CCNCC2)n1 | 125 | 25 | –
34 | Cc1nc(CN2CCN(c3nc(NCCc4ccc(O)cc4)nc(N(C)CCCc4ccc(Cl)cc4)n3)CC2)cs1 | – | 25 | IC50 (Estrogen receptor beta [4]): 5 nM; IA (Estrogen receptor beta [6]): inactive
35 | Oc1ccc(CCNc2nc(NC/C=C/c3ccccc3)nc(N3CCNCC3)n2)cc1 | 6870 | 4200 | –
36 | CN(C)C(=O)CN1CCN(c2nc(NCCc3ccc(O)cc3)nc(N(C)CCCc3ccc(Cl)cc3)n2)CC1 | 3000 | 270 | –
37 | CN1CCN(c2nc(NCCCc3ccccc3)nc(NCCc3cccc(O)c3)n2)CC1 | > 10000 | 4250 | –
38 | CN(CCOc1ccc(Cl)cc1)c1nc(NCCc2ccc(O)cc2)nc(N2CCNCC2)n1 | 1000 | 170 | –

Row | SMILES | Ki (Estrogen receptor [1]) [nM] | Ki (Estrogen receptor beta [2]) [nM] | further results
39 | COc1ccc(C(=O)N2CCN(c3nc(NCCc4ccc(O)cc4)nc(N(C)CCCc4ccc(Cl)cc4)n3)CC2)cc1 | 1130 | 110 | –
40 | Oc1ccc(CCNc2nc(SCCOc3ccc(Cl)cc3)nc(N3CCNCC3)n2)cc1 | 570 | 90 | –
41 | CN1CCN(c2nc(NCCCc3ccccc3)nc(NC3CCc4cc(O)ccc4C3)n2)CC1 (stereo not given) | 1000 | 170 | –
42 | O=C(c1ccc(OCCN2CCCCC2)cc1)c1c(-c2ccc(O)cc2)sc2cc(O)ccc12 | – | – | IA (Estrogen receptor beta [7]): inactive
43 | CN(CCCc1ccc(Cl)cc1)c1nc(NCCc2ccc(O)cc2)nc(N2CCN(c3ccccc3)CC2)n1 | 6320 | 890 | –
44 | CN(CCCc1ccc2c(c1)OCO2)c1nc(NCCc2ccc(O)cc2)nc(N2CCNCC2)n1 | 560 | 30 | –
45 | CN(CCCc1ccc(Cl)cc1)c1nc(NCCc2ccc(O)cc2)nc(N2CCNCC2)n1 | 300 | 15 | EC50 (Estrogen receptor [3]): 180 nM; IC50 (Estrogen receptor beta [4]): 5 nM; IC50 (Estrogen receptor [5]): 110 nM; IA (Estrogen receptor beta [8]): inactive
46 | CCN(CC)C(=O)N1CCN(c2nc(NCCc3ccc(O)cc3)nc(N(C)CCCc3ccc(Cl)cc3)n2)CC1 | > 10000 | 790 | –
47 | CN(CCCc1ccc(Cl)cc1)c1nc(NCCc2ccc(O)cc2)nc(N2CCN(CC(=O)C(C)(C)C)CC2)n1 | 1020 | 210 | –
48 | CN1CCN(c2nc(NCCCc3ccccc3)nc(NCc3ccc(O)cc3)n2)CC1 | 5130 | 3690 | –
49 | CN(CCCc1ccc(Cl)cc1)c1nc(NCCc2ccc(O)cc2)nc(N2CCN(CCO)CC2)n1 | 395 | 15 | EC50 (Estrogen receptor [3]): 180 nM; IC50 (Estrogen receptor beta [4]): 15 nM; IC50 (Estrogen receptor [5]): 30 nM; IA (Estrogen receptor beta [6]): inactive
50 | Oc1ccc(CCNc2nc(NCCc3ccccc3)nc(N3CCNCC3)n2)cc1 | 2370 | 1750 | –
51 | CN(CCCc1ccc(Cl)cc1)c1nc(NCCc2ccc(O)cc2)nc(N2CCN(Cc3ccccc3)CC2)n1 | 120 | 8 | –
52 | CN1CCN(c2nc(NCCc3ccc(O)cc3)nc(SCCCc3ccccc3)n2)CC1 | 270 | 50 | –
53 | CN(CCCc1ccc(Cl)cc1)c1nc(NCCc2ccc(O)cc2)nc(N2CCN(S(=O)(=O)Cc3ccccc3)CC2)n1 | 1450 | 490 | –
54 | CN1CCN(c2nc(NCCCCc3ccccc3)nc(NCCc3ccc(O)cc3)n2)CC1 | 415 | 490 | –
55 | CN1CCN(c2nc(NCCc3ccc(O)cc3)nc(NC3CCc4ccccc43)n2)CC1 (stereo not given) | > 10000 | > 10000 | –
56 | C=CCN1CCN(c2nc(NCCc3ccc(O)cc3)nc(N(C)CCCc3ccc(Cl)cc3)n2)CC1 | 360 | 30 | –
